# Measurements taken from patent US20160297833A1, “THIENOPYRIMIDINES AS MKNK1 AND MKNK2 INHIBITORS” (BAYER PHARMA AKTIENGESELLSCHAFT, priority 2013, published 2016).
# Biological target: T1, human full-length MKNK1 (Homo sapiens, UniProt Q9BUB5, T385D)
# T1 construct: GST (N); purchased Carna Biosciences 02-145; host or cells: insect cells (baculovirus expression system)
# Experiment: MKNK1 kinase high ATP assay (TR-FRET)
# Assay type: biochemical
# Conditions: Table 1; MKNK1 kinase high ATP assay, 2 mM ATP; read-out: MKNK1 IC50
# Outline: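 Full-length human MKNK1 (T385D) preincubated 15 min at 22 °C with compound in HEPES pH 7.5/MgCl2/DTT buffer; reaction with 2 mM ATP (final) and 0.06 μM biotinylated peptide (final), 30 min at 22 °C.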
# T1 sequence (Q9BUB5 1-424 isoform Q9BUB5-2 T344D): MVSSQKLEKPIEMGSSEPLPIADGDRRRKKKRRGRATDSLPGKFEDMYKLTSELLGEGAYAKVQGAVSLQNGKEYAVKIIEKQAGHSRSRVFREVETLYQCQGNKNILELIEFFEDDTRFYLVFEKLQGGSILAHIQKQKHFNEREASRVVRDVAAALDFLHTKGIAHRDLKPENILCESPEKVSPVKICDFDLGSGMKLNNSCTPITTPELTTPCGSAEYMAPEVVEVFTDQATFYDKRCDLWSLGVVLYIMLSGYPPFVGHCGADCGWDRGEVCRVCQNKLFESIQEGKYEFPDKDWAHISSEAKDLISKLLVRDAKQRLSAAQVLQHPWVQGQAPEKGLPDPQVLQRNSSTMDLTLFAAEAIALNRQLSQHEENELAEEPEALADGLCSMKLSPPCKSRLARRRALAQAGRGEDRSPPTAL
row,SMILES,IC50 [pM]
1,"O=C([C@H]1CCc2c(sc3ncnc(Nc4cc5cn[nH]c5cc4N4CCCC4)c23)C1)N1CCC1 [Example 195, Azetidin-1-yl[(7S)-4-{[6-(pyrrolidin-1-yl)-1H-indazol-5-yl]amino}-5,6,7,8-tetrahydro[1]benzothieno[2,3-d]pyrimidin-7-yl]methanone]",900
2,"CN(C)c1cc2[nH]ncc2cc1Nc1ncnc2sc3c(c12)CC[C@H](C(=O)N1CCC1)C3 [Example 196, Azetidin-1-yl[(7S)-4-{[6-(dimethylamino)-1H-indazol-5-yl]amino}-5,6,7,8-tetrahydro[1]benzothieno[2,3-d]pyrimidin-7-yl]methanone]",100
3,"CCN(OC)C(=O)[C@H]1CCc2c(sc3ncnc(Nc4cc5cn[nH]c5cc4OC)c23)C1 [Example 197, (7S)—N-Ethyl-N-methoxy-4-[(6-methoxy-1H-indazol-5-yl)amino]-5,6,7,8-tetrahydro[1]benzothieno[2,3-d]pyrimidine-7-carboxamide]",100
4,"COc1cc2[nH]ncc2cc1Nc1ncnc2sc3c(c12)CC[C@H](C(=O)N(C)OC)C3 [Example 198, (7S)—N-Methoxy-4-[(6-methoxy-1H-indazol-5-yl)amino]-N-methyl-5,6,7,8-tetrahydro[1]benzothieno[2,3-d]pyrimidine-7-carboxamide]",200
5,"CN(C)C(=O)[C@H]1CCc2c(sc3ncnc(Nc4cc5cn[nH]c5cc4OC4CCCC4)c23)C1 [Example 199, (7S)-4-{[6-(Cyclopentyloxy)-1H-indazol-5-yl]amino}-N,N-dimethyl-5,6,7,8-tetrahydro[1]benzothieno[2,3-d]pyrimidine-7-carboxamide]",200
6,"CN(C)C(=O)[C@H]1CCc2c(sc3ncnc(Nc4cc5cn[nH]c5cc4OC4CCOCC4)c23)C1 [Example 200, (7S)—N,N-Dimethyl-4-{[6-(tetrahydro-2H-pyran-4-yloxy)-1H-indazol-5-yl]amino}-5,6,7,8-tetrahydro[1]benzothieno[2,3-d]pyrimidine-7-carboxamide]",1600
7,"CN(C)C(=O)[C@H]1CCc2c(sc3ncnc(Nc4cc5cn[nH]c5cc4OCC4CCOCC4)c23)C1 [Example 201, (7S)—N,N-Dimethyl-4-{[6-(tetrahydro-2H-pyran-4-ylmethoxy)-1H-indazol-5-yl]amino}-5,6,7,8-tetrahydro[1]benzothieno[2,3-d]pyrimidine-7-carboxamide]",23600
8,"CN(C)C(=O)[C@H]1CCc2c(sc3ncnc(Nc4cc5cn[nH]c5cc4OC4CCCCC4)c23)C1 [Example 202, (7S)-4-{[6-(Cyclohexyloxy)-1H-indazol-5-yl]amino}-N,N-dimethyl-5,6,7,8-tetrahydro[1]benzothieno[2,3-d]pyrimidine-7-carboxamide]",1000
9,"CN(C)CCCOc1cc2[nH]ncc2cc1Nc1ncnc2sc3c(c12)CC[C@H](C(=O)N(C)C)C3 [Example 203, (7S)-4-({6-[3-(Dimethylamino)propoxy]-1H-indazol-5-yl}amino)-N,N-dimethyl-5,6,7,8-tetrahydro[1]benzothieno[2,3-d]pyrimidine-7-carboxamide]",17100
10,"COc1cc2[nH]ncc2cc1Nc1ncnc2sc3c(c12)CC[C@H](C(=O)N(C)CC(C)(C)OC)C3 [Example 204, (7S)-4-[(6-Methoxy-1H-indazol-5-yl)amino]-N-(2-methoxy-2-methylpropyl)-N-methyl-5,6,7,8-tetrahydro[1]benzothieno[2,3-d]pyrimidine-7-carboxamide]",900
11,"COc1cc2[nH]ncc2cc1Nc1ncnc2sc3c(c12)CC[C@H](C(=O)N1CCCCO1)C3 [Example 212, {(7S)-4-[(6-Methoxy-1H-indazol-5-yl)amino]-5,6,7,8-tetrahydro[1]benzothieno[2,3-d]pyrimidin-7-yl}(1,2-oxazinan-2-yl)methanone]",300
12,"CCON(C)C(=O)[C@H]1CCc2c(sc3ncnc(Nc4cc5cn[nH]c5cc4OC)c23)C1 [Example 214, (7S)—N-Ethoxy-4-[(6-methoxy-1H-indazol-5-yl)amino]-N-methyl-5,6,7,8-tetrahydro[1]benzothieno[2,3-d]pyrimidine-7-carboxamide]",1200
13,"COc1cc2[nH]ncc2cc1Nc1ncnc2sc3c(c12)CC[C@H](C(=O)N(C)CCC(C)(C)O)C3 [Example 215, (7S)—N-(3-Hydroxy-3-methylbutyl)-4-[(6-methoxy-1H-indazol-5-yl)amino]-N-methyl-5,6,7,8-tetrahydro[1]benzothieno[2,3-d]pyrimidine-7-carboxamide]",1000
14,"COc1cc2[nH]ncc2cc1Nc1ncnc2sc3c(c12)CC[C@H](C(=O)N(C)S(C)(=O)=O)C3 [Example 216, (7S)-4-[(6-Methoxy-1H-indazol-5-yl)amino]-N-methyl-N-(methylsulfonyl)-5,6,7,8-tetrahydro[1]benzothieno[2,3-d]pyrimidine-7-carboxamide]",500
15,"COCCN(C)C(=O)[C@H]1CCc2c(sc3ncnc(Nc4cc5cn[nH]c5cc4OC)c23)C1 [Example 217, (7S)—N-(2-Methoxyethyl)-4-[(6-methoxy-1H-indazol-5-yl)amino]-N-methyl-5,6,7,8-tetrahydro[1]benzothieno[2,3-d]pyrimidine-7-carboxamide]",300
16,"O=C([C@H]1CCc2c(sc3ncnc(Nc4cc5cn[nH]c5cc4F)c23)C1)N1CC2CC2C1 (stereo partly drawn) [Example 220, 3-Azabicyclo[3.1.0]hex-3-yl{(7S)-4-[(6-fluoro-1H-indazol-5-yl)amino]-5,6,7,8-tetrahydro[1]benzothieno[2,3-d]pyrimidin-7-yl}methanone]",4300
17,"COCCN(C)C(=O)[C@H]1CCc2c(sc3ncnc(Nc4cc5cn[nH]c5cc4F)c23)C1 [Example 222, (7S)-4-[(6-Fluoro-1H-indazol-5-yl)amino]-N-(2-methoxyethyl)-N-methyl-5,6,7,8-tetrahydro[1]benzothieno[2,3-d]pyrimidine-7-carboxamide]",3200
18,"C[C@@H]1COCCN1C(=O)[C@H]1CCc2c(sc3ncnc(Nc4cc5cn[nH]c5cc4F)c23)C1 [Example 223, {(7S)-4-[(6-Fluoro-1H-indazol-5-yl)amino]-5,6,7,8-tetrahydro[1]benzothieno[2,3-d]pyrimidin-7-yl}[(3R)-3-methylmorpholin-4-yl]methanone]",8400

# Continued, values first:
row,IC50 [pM],SMILES
1,900,"COc1cc2[nH]ncc2cc1Nc1ncnc2sc3c(c12)CC[C@H](C(=O)N1CC=CC1)C3 [Example 206, 2,5-Dihydro-1H-pyrrol-1-yl{(7S)-4-[(6-methoxy-1H-indazol-5-yl)amino]-5,6,7,8-tetrahydro[1]benzothieno[2,3-d]pyrimidin-7-yl}methanone]"
2,200,"COc1cc2[nH]ncc2cc1Nc1ncnc2sc3c(c12)CC[C@H](C(=O)N1CCSCC1)C3 [Example 207, {(7S)-4-[(6-methoxy-1H-indazol-5-yl)amino]-5,6,7,8-tetrahydro[1]benzothieno[2,3-d]pyrimidin-7-yl}(thiomorpholin-4-yl)methanone]"
3,600,"COc1cc2[nH]ncc2cc1Nc1ncnc2sc3c(c12)CC[C@H](C(=O)N1CCC(F)(F)C1)C3 [Example 208, (3,3-Difluoropyrrolidin-1-yl){(7S)-4-[(6-methoxy-1H-indazol-5-yl)amino]-5,6,7,8-tetrahydro[1]benzothieno[2,3-d]pyrimidin-7-yl}methanone]"
4,500,"COc1cc2[nH]ncc2cc1Nc1ncnc2sc3c(c12)CC[C@H](C(=O)N1CC2CC2C1)C3 (stereo partly drawn) [Example 209, 3-Azabicyclo[3.1.0]hex-3-yl{(7S)-4-[(6-methoxy-1H-indazol-5-yl)amino]-5,6,7,8-tetrahydro[1]benzothieno[2,3-d]pyrimidin-7-yl}methanone]"
5,400,"COc1cc2[nH]ncc2cc1Nc1ncnc2sc3c(c12)CC[C@H](C(=O)N1C[C@H](C)O[C@@H](C)C1)C3 [Example 210, [(2S,6S)-2,6-Dimethylmorpholin-4-yl]{(7S)-4-[(6-methoxy-1H-indazol-5-yl)amino]-5,6,7,8-tetrahydro[1]benzothieno[2,3-d]pyrimidin-7-yl}methanone]"
6,200,"COc1cc2[nH]ncc2cc1Nc1ncnc2sc3c(c12)CC[C@H](C(=O)N1C[C@@H](C)O[C@H](C)C1)C3 [Example 211, [(2R,6R)-2,6-Dimethylmorpholin-4-yl]{(7S)-4-[(6-methoxy-1H-indazol-5-yl)amino]-5,6,7,8-tetrahydro[1]benzothieno[2,3-d]pyrimidin-7-yl}methanone]"
7,400,"COc1cc2[nH]ncc2cc1Nc1ncnc2sc3c(c12)CC[C@H](C(=O)N1CCCO1)C3 [Example 213, {(7S)-4-[(6-Methoxy-1H-indazol-5-yl)amino]-5,6,7,8-tetrahydro[1]benzothieno[2,3-d]pyrimidin-7-yl}(1,2-oxazolidin-2-yl)methanone]"
8,200,"CCOc1cc2[nH]ncc2cc1Nc1ncnc2sc3c(c12)CC[C@H](C(=O)N1CC(N(C)C)C1)C3 [Example 218, [3-(Dimethylamino)azetidin-1-yl]{(7S)-4-[(6-ethoxy-1H-indazol-5-yl)amino]-5,6,7,8-tetrahydro[1]benzothieno[2,3-d]pyrimidin-7-yl}methanone]"
9,200,"CC(C)Oc1cc2[nH]ncc2cc1Nc1ncnc2sc3c(c12)CC[C@H](C(=O)N1CC(N(C)C)C1)C3 [Example 219, [3-(Dimethylamino)azetidin-1-yl][(7S)-4-{[6-(propan-2-yloxy)-1H-indazol-5-yl]amino}-5,6,7,8-tetrahydro[1]benzothieno[2,3-d]pyrimidin-7-yl]methanone]"
10,3800,"C[C@@H]1CN(C(=O)[C@H]2CCc3c(sc4ncnc(Nc5cc6cn[nH]c6cc5F)c34)C2)C[C@H](C)O1 [Example 221, [(2R,6S)-2,6-Dimethylmorpholin-4-yl]{(7S)-4-[(6-fluoro-1H-indazol-5-yl)amino]-5,6,7,8-tetrahydro[1]benzothieno[2,3-d]pyrimidin-7-yl}methanone]"
